Experiments:
[1] = sample as named; W samples fresh
[2] = in vivo; details: topical or ocular
[3] = in vivo
[4] = test system: Hen; details: in vivo
[5] = in vivo; details: chicken
[6] = test system: Ames
[7] = test system: Bladder
[8] = test system: Mouse; test: Genotoxicity: mouse micronucleus; details: in vivo
[9] = in vivo; details: po
[10] = in vivo; remark: listed apart in the source

Structure (SMILES)	Independent Lab Cond. [1]	LD50 [2]	Skin Irritation [3]	Hen Neurotox [4]	LD50 [5]	Ames [6]	Subchronic Bladder Hyperplasia, level in rats [7]	NOEL, subchronic bladder hyperplasia ([7]; rats)	Subchronic Bladder Hyperplasia, observation ([7]; rats)	Mouse micronucleus [8]	LD50 [9]	Eye Irritation [10]
CCCCOP(=O)(OCCCC)Oc1ccccc1 [DBPP, dibutyl phenyl phosphate]	0.008 μMHO/cm	–	–	–	–	–	–	–	–	–	–	–
CC(C)COP(=O)(OCC(C)C)OCC(C)C [TIBP, triisobutyl phosphate]	–	> 5000 mg/kg	Moderately irritating	Not neurotoxic	> 5000 mg/kg	negative	> 5000 ppm	5000 ppm	None observed	negative	> 5000 mg/kg	Practically non-irritating
